Consider 18 compounds from patent publication US20090304692A1, “TRIAZINE COMPOUNDS AS PI3 KINASE AND MTOR INHIBITORS” (Wyeth, priority 2008, published 2009).

Where “and” joins values, the source holds several entries; their conditions need not be identical. Equal values may be shown once. Read-outs that look alike come from different tables or passages of the source.

The target in one assay is Human mTOR (FLAG-TOR) (Homo sapiens, UniProt P42345). Kind of assay: mTOR kinase assay (DELFIA format, purified enzyme). It is filed as biochemical.
Chain of Human mTOR (FLAG-TOR) (P42345 1360-2549 limits assumed): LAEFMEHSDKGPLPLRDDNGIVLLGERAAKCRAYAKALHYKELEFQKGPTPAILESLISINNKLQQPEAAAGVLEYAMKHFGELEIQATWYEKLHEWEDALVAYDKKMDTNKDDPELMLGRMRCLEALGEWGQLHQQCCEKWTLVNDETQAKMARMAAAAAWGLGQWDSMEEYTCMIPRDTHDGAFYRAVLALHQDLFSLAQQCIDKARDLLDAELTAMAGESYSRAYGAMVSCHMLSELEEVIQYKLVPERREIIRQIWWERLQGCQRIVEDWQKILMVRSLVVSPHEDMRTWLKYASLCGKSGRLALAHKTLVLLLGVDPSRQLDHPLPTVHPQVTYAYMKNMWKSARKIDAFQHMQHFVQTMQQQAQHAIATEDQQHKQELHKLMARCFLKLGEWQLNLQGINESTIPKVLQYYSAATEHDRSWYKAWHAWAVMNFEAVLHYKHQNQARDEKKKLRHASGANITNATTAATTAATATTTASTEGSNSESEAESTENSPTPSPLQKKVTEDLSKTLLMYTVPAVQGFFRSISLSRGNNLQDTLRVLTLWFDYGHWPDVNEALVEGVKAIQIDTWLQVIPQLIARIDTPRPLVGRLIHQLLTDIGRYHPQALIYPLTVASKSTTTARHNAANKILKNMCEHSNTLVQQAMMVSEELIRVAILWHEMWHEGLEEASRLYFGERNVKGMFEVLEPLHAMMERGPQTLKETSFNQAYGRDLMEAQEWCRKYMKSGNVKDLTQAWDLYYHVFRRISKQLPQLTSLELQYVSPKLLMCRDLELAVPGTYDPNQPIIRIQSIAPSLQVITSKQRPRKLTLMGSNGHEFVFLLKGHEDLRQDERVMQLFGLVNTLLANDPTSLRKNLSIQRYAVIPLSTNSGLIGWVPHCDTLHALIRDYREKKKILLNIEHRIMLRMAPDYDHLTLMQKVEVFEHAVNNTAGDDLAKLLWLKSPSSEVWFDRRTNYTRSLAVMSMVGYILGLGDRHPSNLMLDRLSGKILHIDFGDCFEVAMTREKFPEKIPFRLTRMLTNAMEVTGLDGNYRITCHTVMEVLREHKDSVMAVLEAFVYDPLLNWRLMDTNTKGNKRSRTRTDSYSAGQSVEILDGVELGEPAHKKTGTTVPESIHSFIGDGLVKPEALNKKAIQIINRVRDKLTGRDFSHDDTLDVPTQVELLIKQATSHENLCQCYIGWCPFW
Assay [1] has as its system human breast MDA-MB-361 tumor cell line. Kind of assay: In vitro cell culture growth assay (MTS), MDA-MB-361. It is filed as cell-based.
Assay [2] has as its system human prostate PC3-mm2 tumor cell line. The assay can be described thus: In vitro cell culture growth assay (MTS), PC3-mm2. In kind it is cell-based.
A further assay has as its target PI3K-α (Homo sapiens, UniProt P42336). Kind of assay: PI3K-alpha fluorescence polarization assay. The following applies: read-out: IC50 PI3Kα. On the technique in general: In fluorescence polarisation assays a small probe gives low polarisation when free and higher when bound to something large.
In a further assay the target is PI3K-γ (Homo sapiens, UniProt P48736). The assay can be described thus: PI3K-gamma fluorescence polarization assay. The following applies: read-out: IC50 PI3Kγ.
Chain of PI3K-γ (P48736 whole entry, species assumed): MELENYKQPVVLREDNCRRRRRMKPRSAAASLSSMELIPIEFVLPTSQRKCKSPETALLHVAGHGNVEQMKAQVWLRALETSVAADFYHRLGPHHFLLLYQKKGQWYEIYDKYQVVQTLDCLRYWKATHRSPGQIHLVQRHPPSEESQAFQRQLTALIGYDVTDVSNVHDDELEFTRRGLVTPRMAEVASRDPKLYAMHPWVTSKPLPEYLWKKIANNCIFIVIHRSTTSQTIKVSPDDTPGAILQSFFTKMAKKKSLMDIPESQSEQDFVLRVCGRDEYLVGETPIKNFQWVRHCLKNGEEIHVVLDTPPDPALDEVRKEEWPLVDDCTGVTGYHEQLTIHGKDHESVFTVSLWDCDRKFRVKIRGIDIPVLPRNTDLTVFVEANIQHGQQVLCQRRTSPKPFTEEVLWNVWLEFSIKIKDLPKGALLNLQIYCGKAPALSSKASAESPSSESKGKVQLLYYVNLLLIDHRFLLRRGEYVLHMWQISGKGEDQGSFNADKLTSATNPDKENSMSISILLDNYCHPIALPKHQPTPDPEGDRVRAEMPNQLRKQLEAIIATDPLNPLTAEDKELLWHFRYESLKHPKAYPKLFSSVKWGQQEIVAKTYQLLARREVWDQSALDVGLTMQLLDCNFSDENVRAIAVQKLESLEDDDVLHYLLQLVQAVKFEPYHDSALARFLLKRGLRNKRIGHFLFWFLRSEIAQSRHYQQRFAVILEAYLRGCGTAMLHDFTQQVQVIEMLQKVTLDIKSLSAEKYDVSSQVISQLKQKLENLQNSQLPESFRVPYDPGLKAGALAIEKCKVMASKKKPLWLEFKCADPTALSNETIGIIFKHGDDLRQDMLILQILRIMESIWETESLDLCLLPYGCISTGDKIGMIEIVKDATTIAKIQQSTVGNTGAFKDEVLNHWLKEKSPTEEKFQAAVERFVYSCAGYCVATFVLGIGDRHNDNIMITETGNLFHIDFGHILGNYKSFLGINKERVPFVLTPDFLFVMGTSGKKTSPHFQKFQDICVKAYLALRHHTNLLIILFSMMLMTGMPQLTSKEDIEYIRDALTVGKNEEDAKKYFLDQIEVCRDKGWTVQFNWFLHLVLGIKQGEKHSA
Setting [3] is: Homo sapiens, MDA-MB-361, 72 h, MTS cell growth assay, three days after drug treatment, read-out: IC50 MDA-MB-361.
[4] abbreviates: Homo sapiens, PC3MM2, 72 h, MTS cell growth assay, three days after drug treatment, read-out: IC50 PC3-mm2.
[5] abbreviates: Homo sapiens, MDA-MB-361, 72 h, read-out: IC50 MDA-MB-361.
Where [6] appears, read: Homo sapiens, PC3MM2, 72 h, read-out: IC50 PC3-mm2.
Setting [7] is: Homo sapiens, MDA-MB-361, 72 h, MTS cell growth assay, three days after drug treatment, MDA-MB-361 cells, read-out: IC50 MDA-MB-361.
Setting [8] is: Homo sapiens, PC3MM2, 72 h, MTS cell growth assay, three days after drug treatment, PC3-mm2 cells, read-out: IC50 PC3-mm2.

Chain of PI3K-α (P42336 whole entry, species assumed): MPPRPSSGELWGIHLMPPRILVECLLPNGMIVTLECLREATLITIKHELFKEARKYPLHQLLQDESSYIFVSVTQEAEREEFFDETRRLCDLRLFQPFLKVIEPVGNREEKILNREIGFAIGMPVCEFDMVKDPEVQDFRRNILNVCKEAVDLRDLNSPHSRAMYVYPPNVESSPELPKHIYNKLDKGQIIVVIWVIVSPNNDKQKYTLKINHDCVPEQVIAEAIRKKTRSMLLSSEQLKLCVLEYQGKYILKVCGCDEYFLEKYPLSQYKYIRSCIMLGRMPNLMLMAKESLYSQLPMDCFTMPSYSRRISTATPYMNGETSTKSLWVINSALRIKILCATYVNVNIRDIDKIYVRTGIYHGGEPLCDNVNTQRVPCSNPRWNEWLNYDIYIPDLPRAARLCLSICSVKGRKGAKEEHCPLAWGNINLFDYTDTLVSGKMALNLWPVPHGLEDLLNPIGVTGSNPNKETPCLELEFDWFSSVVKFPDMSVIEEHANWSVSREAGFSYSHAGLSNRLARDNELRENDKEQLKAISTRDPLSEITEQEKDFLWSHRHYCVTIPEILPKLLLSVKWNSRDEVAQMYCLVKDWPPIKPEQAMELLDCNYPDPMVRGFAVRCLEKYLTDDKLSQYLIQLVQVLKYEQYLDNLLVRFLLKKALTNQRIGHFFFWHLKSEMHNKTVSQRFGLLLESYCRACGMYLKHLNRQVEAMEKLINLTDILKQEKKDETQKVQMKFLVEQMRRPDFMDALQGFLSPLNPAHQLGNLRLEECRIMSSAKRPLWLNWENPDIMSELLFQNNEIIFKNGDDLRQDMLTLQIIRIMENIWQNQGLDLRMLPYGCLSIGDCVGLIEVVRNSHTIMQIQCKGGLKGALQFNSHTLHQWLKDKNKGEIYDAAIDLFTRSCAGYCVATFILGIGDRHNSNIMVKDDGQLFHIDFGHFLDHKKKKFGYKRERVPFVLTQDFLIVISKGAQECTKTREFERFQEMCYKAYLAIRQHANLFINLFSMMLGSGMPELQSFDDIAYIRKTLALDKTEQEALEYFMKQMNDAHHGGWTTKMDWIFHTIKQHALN
Chain of PI3K-α (P27986 whole entry partner, species assumed): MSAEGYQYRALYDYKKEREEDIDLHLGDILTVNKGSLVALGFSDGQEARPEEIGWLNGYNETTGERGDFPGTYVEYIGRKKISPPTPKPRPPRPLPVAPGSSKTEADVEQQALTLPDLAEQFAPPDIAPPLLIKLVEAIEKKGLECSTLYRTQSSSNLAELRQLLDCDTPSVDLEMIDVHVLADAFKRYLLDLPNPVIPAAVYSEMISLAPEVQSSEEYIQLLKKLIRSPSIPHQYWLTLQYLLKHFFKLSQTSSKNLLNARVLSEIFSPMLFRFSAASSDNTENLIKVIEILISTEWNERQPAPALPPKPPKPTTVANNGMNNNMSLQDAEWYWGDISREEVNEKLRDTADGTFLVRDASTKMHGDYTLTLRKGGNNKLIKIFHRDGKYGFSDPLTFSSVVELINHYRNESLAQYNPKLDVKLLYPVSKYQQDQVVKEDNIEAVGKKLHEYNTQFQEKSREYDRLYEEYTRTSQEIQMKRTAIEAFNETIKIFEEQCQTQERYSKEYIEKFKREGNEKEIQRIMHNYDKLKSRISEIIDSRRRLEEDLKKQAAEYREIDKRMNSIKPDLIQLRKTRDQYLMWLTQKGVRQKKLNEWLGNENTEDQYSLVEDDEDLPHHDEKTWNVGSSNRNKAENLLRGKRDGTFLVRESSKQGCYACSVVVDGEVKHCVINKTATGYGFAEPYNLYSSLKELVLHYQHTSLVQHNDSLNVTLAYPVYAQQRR

In the case of “1-{4-[4-(4-methylphenyl)-6-morpholin-4-yl-1,3,5-triazin-2-yl]phenyl}-3-[4-(pyrrolidin-1-ylcarbonyl)phenyl]urea [Example 553]”, the IC50 (usually the concentration at which inhibition is half-maximal) was found to be 19.5 nM at Human mTOR (FLAG-TOR) (read-out: IC50 mTOR); 113 nM in assay [1] (MTS cell growth assay, three days after drug treatment, MDA-MB-361 cells, read-out: IC50 MDA-MB-361); 522 nM in assay [2] (MTS cell growth assay, three days after drug treatment, PC3-mm2 cells, read-out: IC50 PC3-mm2); 12.5 nM on PI3K-α; 72 nM at PI3K-γ.

For `O=C(Nc1ccncc1)Nc1ccc(-c2nc(N3CCOCC3)nc(N3CCOCC3)n2)cc1` [Example 1, 1-[4-(4,6-dimorpholin-4-yl-1,3,5-triazin-2-yl)phenyl]-3-pyridin-4-ylurea], the IC50 was 1.3 nM on Human mTOR (FLAG-TOR) (read-out: IC50 mTOR); 45 nM in assay [1] (Homo sapiens, MDA-MB-361, 72 h, read-out: IC50 MDA-MB-361, MTS cell growth assay, three days after drug treatment); 43 nM in assay [2] (Homo sapiens, PC3MM2, 72 h, read-out: IC50 PC3-mm2, MTS cell growth assay, three days after drug treatment); 3 nM on PI3K-α; 29 nM at PI3K-γ.

Consider `O=C(Nc1ccccc1)Nc1ccc(-c2nc(N3CCOCC3)nc(N3CCOCC3)n2)cc1` [Example 3, 1-[4-(4,6-dimorpholin-4-yl-1,3,5-triazin-2-yl)phenyl]-3-phenylurea], for which the IC50 on Human mTOR (FLAG-TOR) (read-out: IC50 mTOR) was found to be 3.85 nM; in assay [1] (setting [3]), 45 nM; in assay [2] (setting [4]), 43 nM; on PI3K-α, 3 nM; on PI3K-γ, 27 nM.

With `Cc1ccc(NC(=O)Nc2ccc(-c3nc(N4CCOCC4)nc(N4CCOCC4)n3)cc2)cc1` [Example 5, 1-[4-(4,6-dimorpholin-4-yl-1,3,5-triazin-2-yl)phenyl]-3-(4-methylphenyl)urea], the IC50 at Human mTOR (FLAG-TOR) (read-out: IC50 mTOR) was found to be 6.3 nM; in assay [1] (setting [3]), 45 nM; in assay [2] (setting [4]), 43 nM; on PI3K-α it was 17 nM; on PI3K-γ it was 438 nM.

Consider `O=C(Nc1ccc(F)cc1)Nc1ccc(-c2nc(N3CCOCC3)nc(N3CCOCC3)n2)cc1` [Example 6, 1-[4-(4,6-dimorpholin-4-yl-1,3,5-triazin-2-yl)phenyl]-3-(4-fluorophenyl)urea], for which the concentration for half-maximal inhibition (IC50) on Human mTOR (FLAG-TOR) (read-out: IC50 mTOR) stood at 6 nM; in assay [1] (setting [3]), 45 nM; in assay [2] (setting [4]), 43 nM; on PI3K-α, 6 nM; on PI3K-γ it was 53 nM.

Consider `COc1ccc(NC(=O)Nc2ccc(-c3nc(N4CCOCC4)nc(N4CCOCC4)n3)cc2)cc1` [Example 9, 1-[4-(4,6-dimorpholin-4-yl-1,3,5-triazin-2-yl)phenyl]-3-(4-methoxyphenyl)urea], for which the half-maximal inhibitory concentration (IC50) worked out at 4 nM at Human mTOR (FLAG-TOR) (read-out: IC50 mTOR); 102 nM in assay [1] (setting [3]); 161 nM in assay [2] (setting [4]); 10 nM on PI3K-α; 65 nM on PI3K-γ.

Take `CC(C)(C)OC(=O)N1CC(Nc2nc(-c3ccc(NC(=O)Nc4ccc(F)cc4)cc3)nc(N3CCOCC3)n2)C1` [Example 13, tert-butyl 3-{[4-(4-{[(4-fluorophenyl)carbamoyl]-amino}phenyl)-6-morpholin-4-yl-1,3,5-triazin-2-yl]amino}azetidine-1-carboxylate]: the IC50 was 11.5 nM at Human mTOR (FLAG-TOR) (read-out: IC50 mTOR); 603 nM in assay [1] (setting [3]); 845 nM in assay [2] (setting [4]); 51 nM at PI3K-α; 879 nM on PI3K-γ.

Take `CC(C)(C)OC(=O)N1CC(Nc2nc(-c3ccc(NC(=O)Nc4ccccc4)cc3)nc(N3CCOCC3)n2)C1` [Example 14, tert-butyl 3-[(4-morpholin-4-yl-6-{4-[(phenylcarbamoyl)amino]phenyl}-1,3,5-triazin-2-yl)amino]azetidine-1-carboxylate]: the IC50 on Human mTOR (FLAG-TOR) (read-out: IC50 mTOR) was 8.45 nM; in assay [1] (setting [3]), 376 nM; in assay [2] (setting [4]), 590 nM; on PI3K-α it was 25 nM; at PI3K-γ, 154 nM.

As to `CC(C)(C)OC(=O)N1CC(Nc2nc(-c3ccc(NC(=O)Nc4cccnc4)cc3)nc(N3CCOCC3)n2)C1` [Example 15, tert-butyl 3-[(4-morpholin-4-yl-6-{4-[(pyridine-3-ylcarbamoyl)amino]phenyl}-1,3,5-triazin-2-yl)amino]azetidine-1-carboxylate], the IC50 turned out to be 2.5 nM at Human mTOR (FLAG-TOR) (read-out: IC50 mTOR); 255 nM in assay [1] (setting [3]); 328 nM in assay [2] (setting [4]); 23 nM on PI3K-α; 177 nM at PI3K-γ.

On to `O=C(Nc1ccccc1)Nc1ccc(-c2nc(NC3CNC3)nc(N3CCOCC3)n2)cc1` [Example 17, 1-{4-[4-(azetidin-3-ylamino)-6-morpholin-4-yl-1,3,5-triazin-2-yl]phenyl}-3-phenylurea], for which the IC50 came to 14 nM on Human mTOR (FLAG-TOR) (read-out: IC50 mTOR); 501 nM in assay [1] (setting [3]); 994 nM in assay [2] (setting [4]); 8 nM at PI3K-α; 90 nM at PI3K-γ.

For the compound `CC(C)Oc1nc(-c2ccc(NC(=O)Nc3ccc(C(=O)NCCN(C)C)cc3)cc2)nc(N2CCOCC2)n1` [Example 187, N-[2-(dimethylamino)ethyl]-4-({[4-(4-isopropoxy-6-morpholin-4-yl-1,3,5-triazin-2-yl)phenyl]carbamoyl}amino)benzamide], the IC50 on Human mTOR (FLAG-TOR) (IC50 mTOR) worked out at 3.5 nM; in assay [1] (setting [5]) it was 11 nM; in assay [2] (setting [6]), 41 nM; at PI3K-α, 3 nM.

In the case of `COc1nc(-c2ccc(NC(=O)Nc3ccc(C(=O)N(C)CCN(C)C)cc3)cc2)nc(N2CCOCC2)n1` [Example 243, N-[2-(dimethylamino)ethyl]-4-({[4-(4-methoxy-6-morpholin-4-yl-1,3,5-triazin-2-yl)phenyl]carbamoyl}amino)-N-methylbenzamide], the IC50 against Human mTOR (FLAG-TOR) (IC50 mTOR) is 7.7 nM; in assay [1] (setting [5]), 15 nM; in assay [2] (setting [6]) it was 34 nM; on PI3K-α it was 1 nM; on PI3K-α (listed as 720), 0.4 nM.

On to `COc1nc(-c2ccc(NC(=O)Nc3ccc(C(=O)NCCN(C)C)cc3)cc2)nc(N2CCOCC2)n1` [Example 244, N-[2-(dimethylamino)ethyl]-4-({[4-(4-methoxy-6-morpholin-4-yl-1,3,5-triazin-2-yl)phenyl]carbamoyl}amino)benzamide], for which the IC50 was 5.1 nM and 5.65 nM on Human mTOR (FLAG-TOR) (IC50 mTOR); less than 31 nM in assay [1] (setting [5]); 71 nM in assay [2] (setting [6]); 1 nM on PI3K-α; 0.6 nM on PI3K-α (listed as 721).

Regarding `CC(C)N1CCN(C(=O)c2ccc(NC(=O)Nc3ccc(-c4nc(N5CCC5)nc(N5CCOCC5)n4)cc3)cc2)CC1` [Example 492, 1-[4-(4-azetidin-1-yl-6-morpholin-4-yl-1,3,5-triazin-2-yl)phenyl]-3-(4-{[4-(1-methylethyl)piperazin-1-yl]carbonyl}phenyl)urea], the IC50 at Human mTOR (FLAG-TOR) (read-out: IC50 mTOR) came to 18 nM; in assay [1] (setting [7]), 26 nM; in assay [2] (setting [8]), 57 nM; on PI3K-γ, 35 nM.

Turning to `O=C(Nc1ccc(C(=O)NCCN2CCCCC2)cc1)Nc1ccc(-c2nc(O[C@H]3CCOC3)nc(N3CCOCC3)n2)cc1` [Example 520, 4-{[(4-{4-morpholin-4-yl-6-[(3S)-tetrahydrofuran-3-yloxy]-1,3,5-triazin-2-yl}phenyl)carbamoyl]amino}-N-(2-piperidin-1-ylethyl)benzamide], the IC50 was determined as 0.38 nM against Human mTOR (FLAG-TOR) (IC50 mTOR), 5 nM in assay [1] (setting [5]), 18 nM in assay [2] (setting [8]) and 1.4 nM at PI3K-α.

Take `CN1CCN(C(=O)c2ccc(NC(=O)Nc3ccc(-c4nc(N5CCCOCC5)nc(N5CCOCC5)n4)cc3)cc2)CC1` [Example 573, 1-{4-[(4-methylpiperazin-1-yl)carbonyl]phenyl}-3-{4-[4-morpholin-4-yl-6-(1,4-oxazepan-4-yl)-1,3,5-triazin-2-yl]phenyl}urea]: the IC50 at Human mTOR (FLAG-TOR) (read-out: IC50 mTOR) came out at 4 nM; in assay [1] (setting [7]) it was 99 nM; in assay [2] (setting [8]), 206 nM; at PI3K-γ, 64 nM.

As for `O=C(Nc1ccc(C(=O)NCCN2CCOCC2)cc1)Nc1ccc(-c2nc(N3CCOCC3)nc(N3C4CCC3COC4)n2)cc1` [Example 702, N-(2-morpholin-4-ylethyl)-4-[({4-[4-morpholin-4-yl-6-(3-oxa-8-azabicyclo[3.2.1]oct-8-yl)-1,3,5-triazin-2-yl]phenyl}carbamoyl)amino]benzamide], the IC50 on Human mTOR (FLAG-TOR) (read-out: IC50 mTOR) came out at 0.555 nM; in assay [1] (Homo sapiens, 72 h, MTS cell growth assay, three days after drug treatment, MDA-MB-361 cells, read-out: IC50 MDA-MB-361) it was 4 nM; in assay [2] (setting [8]), 14 nM; on PI3K-γ it was 126 nM.

Consider `CC(C)N1CCN(C(=O)c2ccc(NC(=O)Nc3ccc(-c4nc(N5CCOCC5)nc(N5C6CCCC5COC6)n4)cc3)cc2)CC1` [Example 805, 1-(4-{[4-(1-methylethyl)piperazin-1-yl]carbonyl}phenyl)-3-{4-[4-morpholin-4-yl-6-(3-oxa-9-azabicyclo[3.3.1]non-9-yl)-1,3,5-triazin-2-yl]phenyl}urea], for which the IC50 was determined as 0.415 nM on Human mTOR (FLAG-TOR) (read-out: IC50 mTOR); 3 nM in assay [1] (Homo sapiens, MDA-MB-361, 72 h, MDA-MB-361 cells, MTS, three days after drug treatment, read-out: IC50 MDA-MB-361); 13 nM in assay [2] (Homo sapiens, PC3MM2, 72 h, PC3-mm2 cells, MTS, three days after drug treatment, read-out: IC50 PC3-mm2); 64 nM at PI3K-γ.
